In patent US12285404B2, “Prevention of rosacea inflammation” (The Regents of the University of California, priority 2013, dated 2025):

Key:
[1] = test system: protease that cleaves full length cathelicidin; settings: cited from earlier work
WT mice = experiment: MC stabilizer experiment: cromolyn sodium I.P. pretreatment before Cath LL-37 challenge (rosacea mouse model); format: in vivo
Description: WT mice were injected I.P. with vehicle or cromolyn sodium (10 mg/kg, per day) for 4 days. 24 hours after the last injection, the mice were injected intradermally with 50 μl of […] Cath LL-37 or PBS, twice a day for 2 days. Skin biopsies were taken after 72 hours of observation and (a) Mmp-9 and Cxcl2 mRNA expressions were assessed by RT-PCR, (b) MMP-9 activity was assessed by measuring cleavage of a MMP fluorogenic substrate with specific inhibitors, and (c) immunohistochemistry was performed on frozen skin sections using antibodies against MMP-9 and FcεRI. DAPI stain was also used, as indicated. Statistics: one-way and two-way ANOVA **p<0.01 (n=3).
Mast cell deficient (C57BL/6-KitWsh^−/−) mice were bred. KitWsh^−/− mice bearing the W-sash (Wsh) inversion mutation have MC deficiency, but lack anemia and sterility. […] Wild type mice (C57BL/6) were utilized as control. Mice were shaved 24 hrs before intradermal injection with 50 μl of 50 μM or 320 μM of Cath LL-37 or filtered PBS (n=3), twice a day for 2 days and skin biopsies were taken after 72 hours of observation. Total RNA was extracted and purified by RNeasy Mini Kit (QIAGEN science). For the time course observation, skin biopsies of WT and MC deficient mice were taken at 1, 4, and 24 hrs after Cath LL-37 injection.
For the MC stabilizer experiment: Cromolyn sodium (0.3 mg/mouse/day) (Sigma-Aldrich, St Louis, MO) in PBS was injected I.P. into WT mice for 4 days.
Total-MMP activities were determined by following previously reported study (Kanada et al., 2012). To determine MMP-9 activity, MMP-9 specific inhibitor I (Thermo Fisher Scientific, Chicago, IL) was used.
cDNA was synthesized from RNA using the iScript cDNA Synthesis Kit (BioRad, Hercules, CA) according to the manufacturer's protocol. cDNA was normalized using a NanoDrop spectrophotometer (Thermo Fisher Scientific Inc.). Probes from TagMan Gene Expression Assays (Applied Biosystems ABI, Foster City, CA) were used to analyze gene expressions with following to the manufacturer's instructions. Gapdh mRNA was used as an internal control to validate RNA for each sample. mRNA expression was calculated as the relative expression to Gapdh mRNA, and all data are presented as fold change of each control.
Fluorescence immunohistochemistry. Mouse skin frozen sections were fixed with acetone, washed in 1×PBS, blocked with 5% goat serum/1% BSA for 30 minutes, and incubated with anti-MMP-9 polyclonal antibody (ABBIOTEC, San Diego, CA). For FcERI detection, anti-mouse FcERI PE (eBioscience, San Diego, CA) was used. Images were obtained using a Zeiss LSM510 laser scanning confocal microscope coupled with an Axiovert 100 inverted stage microscope.
According to the obtained results, MC proteases and MMP-9, which are released from MCs upon stimulation by Cath LL-37, are central in promoting rosacea-like skin inflammation. […] To test this hypothesis, cromolyn sodium, a very well-known MC stabilizer, was injected I.P. into WT mice (10 mg/kg, per day) every day for 4 days before Cath LL-37 challenge. 24 hours after the last cromolyn sodium injection, mice were injected with 50 μl of […] Cath LL-37 or PBS, twice a day for 2 days. […] In addition, frozen skin sections were stained with anti-MMP-9 and anti-FIERI antibodies for the detection of MCs.

[2] = test system: erythematotelangiectatic rosacea subjects; experiment: Topical 4% cromolyn sodium vs placebo in erythematotelangiectatic rosacea subjects, clinical evaluation and tape strips; format: in vivo, human
Description: (a, b) NHEK cells were co-cultured with 100 μl of supernatant of human cord blood-derived MCs after degranulation by 48/80, or serine buffer. (a) After 24 hrs of co-culture, NHEK cells were washed well and MMP and KLK activities in the cells were obtained, and (b) For the comparison of Cath LL-37 mRNA expression in NHEK cells, 100 nM of 1,25(OH)2VD3 was added to same co-culture. (c) 10 erythematotelangiectatic rosacea subjects were randomized to apply a solution containing either the MC stabilizer (4% cromolyn sodium) (n=5) or placebo (n=5) topically. Tape strips were obtained at the first visit (v1) and last visit (v4) and proteases and protein were separately extracted. Statistics: t-test ***p<0.001 (n=3), *p<0.05 (n=5).
2 mm skin biopsies were taken from the faces of healthy and rosacea subjects, as well as tape strips from the face of erythematotelangiectatic rosacea subjects in the dermatology clinic at the University of California, San Diego. All the procedures involving human subjects were approved by the University of California San Diego Institutional Review Board under the IRB number 071032. Ten randomized adults with erythematotelangiectatic rosacea were applied a water-based solution containing either 4% cromolyn sodium or placebo, topically to their face twice a day, for 8 weeks. A clinical evaluation was performed at each visit. A total six tape strips were obtained from right and left cheek at each of the first visit and the final visit.
To test whether the results were reproducible in humans, 10 randomized adults with erythematotelangiectatic rosacea were used to apply a solution containing either the MC stabilizer (4% cromolyn sodium) or placebo, topically to their face twice daily. Six tape strips were obtained from both right and left cheeks, at the time of first visit (v1) and last visit (v4). After eight week (v4), facial erythema levels decreased in the cromolyn treatment group. MMP, KLK activity and Cath LL-37 protein levels were decreased in the cromolyn treatment group with significant activity in MMP observed (FIG. 5c).

[3] = cromolyn pretreated, Cath LL-37 challenged WT mice, biopsies after 72 hours, p<0.01
[4] = 4% cromolyn sodium topically twice daily, v1 vs v4

**Q.** For aprotinin, which “inhibition of the enzyme in vitro” value [1] is on record?
**A.** Its value is “can inhibit this enzyme in vitro”.

**Q.** With `NCCc1ccc(S(=O)(=O)F)cc1` [AEBSF, 4-(2-aminoethyl)-benzenesulfonylfluoride] as the compound, how does the “inhibition of the enzyme in vitro” value [1] read?
**A.** The value was “can inhibit this enzyme in vitro”.

**Q.** Which “mast cell (MC) degranulation” value (WT mice; FIG. 4 legend, cromolyn sodium 10 mg/kg per day I.P. for 4 days, WT mice) does the source give for `O=C(O)c1cc(=O)c2c(OCC(O)COc3cccc4oc(C(=O)O)cc(=O)c34)cccc2o1` [cromolyn, cromolyn sodium] here?
**A.** Its value is “prevents mast cell (MC) degranulation”.

**Q.** And the “MMP-9 activity in the tissue” value (WT mice; cromolyn pretreated, Cath LL-37 challenged WT mice, MMP fluorogenic substrate with specific inhibitors, p<0.01)?
**A.** The value was “dramatically decreased”.

**Q.** What about the “Cxcl2 mRNA expression in skin (RT-PCR)” value (WT mice; [3]) of the same compound?
**A.** Its value is “significantly decreased”.

**Q.** And the “Mmp-9 mRNA expression in skin (RT-PCR)” value (WT mice; [3])?
**A.** Its value is “significantly decreased”.

**Q.** What about the skin inflammation (WT mice; cromolyn sodium I.P. 10 mg/kg per day for 4 days, then 50 μl of 320 μm Cath LL-37 intradermally twice a day for 2 days, WT mice) of the same compound?
**A.** The skin inflammation was “did not develop”.

**Q.** What about the facial erythema levels ([2]; 4% cromolyn sodium solution topically to face twice daily, after eight week (v4), n=5) of the same compound?
**A.** The facial erythema levels was “decreased”.

**Q.** And the “Cath LL-37 protein levels (tape strips)” value [2, 4]?
**A.** Its value is “decreased”.

**Q.** What about the “KLK activity (tape strips)” value [2, 4] of the same compound?
**A.** The value was “decreased”.

**Q.** What about the “MMP activity (tape strips)” value ([2]; 4% cromolyn sodium topically twice daily, v1 vs v4, significant, p<0.05 (n=5)) of the same compound?
**A.** The value was “decreased”.
